The values below come from article PMC6864482, “Novel C7-Substituted Coumarins as Selective Monoamine Oxidase Inhibitors: Discovery, Synthesis and Theoretical Simulation” (Molecules, 2019).

Counter-ions that a name gives are not always drawn. Like-named read-outs stand apart in the source and are kept apart here.

In data set [1] the target is T1, hMAO-A (Homo sapiens, UniProt P21397).
T1 sequence (P21397 1-527): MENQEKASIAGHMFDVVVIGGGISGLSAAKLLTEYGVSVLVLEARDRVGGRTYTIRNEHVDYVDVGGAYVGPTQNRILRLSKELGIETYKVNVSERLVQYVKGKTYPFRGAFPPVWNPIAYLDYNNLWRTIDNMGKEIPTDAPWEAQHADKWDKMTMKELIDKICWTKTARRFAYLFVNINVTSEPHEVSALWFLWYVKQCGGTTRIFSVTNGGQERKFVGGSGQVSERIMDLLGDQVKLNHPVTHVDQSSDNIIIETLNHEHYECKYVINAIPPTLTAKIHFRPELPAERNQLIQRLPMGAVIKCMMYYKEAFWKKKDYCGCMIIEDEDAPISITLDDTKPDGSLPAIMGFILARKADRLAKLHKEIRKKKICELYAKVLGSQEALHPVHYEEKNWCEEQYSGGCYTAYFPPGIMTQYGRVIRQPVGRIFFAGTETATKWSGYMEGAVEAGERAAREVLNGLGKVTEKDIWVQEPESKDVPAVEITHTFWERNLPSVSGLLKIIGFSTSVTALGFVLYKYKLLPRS
Briefly: MAO-Glo inhibition assay, hMAO-A. The format is biochemical. As to the method:
(§1) The inhibition and IC50 values of the identified C7-substituted coumarin analogues were assayed by Shanghai ChemPartner Co. Ltd., using MAO-GloTM assay kit (Promega Corporation, V1402). Two human MAO enzymes (Cat#31502, Cat#31503) were purchased from Active Motif. Clorgyline and R(-)-deprenyl were purchased as reference drugs from Sigma (Cat. No. M3778) and Abcam (Cat. No. ab120604), respectively. The MAO inhibition assays were carried out in modified HEPES buffer in light of the manufacturer’s protocol. Firstly, the tested compounds in DMSO were transferred to a 384-well plate by Echo. The enzyme solutions were then added into the plate and the plate was incubated for 15 min at room temperature (r.t.). Secondly, the luciferin derivative substrate was added to initiate the reaction. After 60 min incubation at r.t., the Luciferin detection reagent was added to each well to terminate the reaction and generate the luminescent signal. Before reading the signal, the plate was incubated for 20 min at r.t. Finally, plate reader was used to measure and record the luminescent signal and corresponding data were processed using GraphPad Prism 5.

Data set [2] concerns the target T2, hMAO-B (Homo sapiens, UniProt P27338).
T2 sequence (P27338 1-520): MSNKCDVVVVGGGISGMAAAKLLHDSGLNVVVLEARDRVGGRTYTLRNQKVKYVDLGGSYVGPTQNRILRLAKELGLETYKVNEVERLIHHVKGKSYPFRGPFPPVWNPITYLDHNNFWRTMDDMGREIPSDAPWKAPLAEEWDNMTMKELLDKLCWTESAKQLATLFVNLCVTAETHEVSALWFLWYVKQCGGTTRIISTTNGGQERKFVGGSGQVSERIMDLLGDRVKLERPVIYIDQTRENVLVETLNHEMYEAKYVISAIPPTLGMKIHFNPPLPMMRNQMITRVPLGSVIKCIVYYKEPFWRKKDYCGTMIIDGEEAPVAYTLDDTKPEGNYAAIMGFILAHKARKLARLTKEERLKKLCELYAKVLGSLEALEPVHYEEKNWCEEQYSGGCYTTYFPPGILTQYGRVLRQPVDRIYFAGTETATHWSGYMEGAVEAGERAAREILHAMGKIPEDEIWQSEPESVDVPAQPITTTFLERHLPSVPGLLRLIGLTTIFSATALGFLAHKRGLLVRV
Briefly: MAO-Glo inhibition assay, hMAO-B. The format is biochemical. As to the method: as §1

Data set [3] concerns the target T1, hMAO-A. The conditions noted are these: cited from earlier work.
Data set [4] addresses T2, hMAO-B. The conditions noted are these: cited from earlier work.
Where [5] appears, read: Table S3, Esuprone derivatives, read-out: MAO-A* IC50.
Where [6] appears, read: purchased (Specs) or synthesized compounds, read-out: MAO-A IC50.
[7] abbreviates: purchased (Specs) or synthesized compounds.
The mark [8] stands for this setting: experimental activity of reference ligand C18 of 2V61, source not stated.
The mark [9] stands for this setting: previously identified BRS-3D hits.
Setting [10] is: pIC50 = −log(IC50), previously identified BRS-3D hits.

For orientation: melting point means the temperature, or range, at which the solid turns liquid. In turn, `Cc1c(OS(=O)(=O)c2ccc([N+](=O)[O-])cc2)ccc2c3c(c(=O)oc12)CCC3` (as salt: benzenesulfonate) [5c, 6-Methyl-4-oxo-1,2,3,4-tetrahydrocyclopenta[c]chromen-7-yl 4-nitrobenzenesulfonate] showed a melting point of 192 to 194 °C.
Regarding `O=c1cc(C2CC2)c2ccc(OS(=O)(=O)c3ccc([N+](=O)[O-])cc3)cc2o1` (as salt: benzenesulfonate) [7f, 4-Cyclopropyl-2-oxo-2H-chromen-7-yl 4-nitrobenzenesulfonate], the melting point was in the range of 192 to 194 °C.
Same read-out and setting: the result for `CCCc1cc(=O)oc2c(C)c(OS(=O)(=O)c3ccc(C)cc3)ccc12` (as salt: benzenesulfonate) [7i, 8-Methyl-2-oxo-4-propyl-2H-chromen-7-yl 4-methylbenzenesulfonate] reads 144 to 146 °C.
Take `CCCc1cc(=O)oc2c(C)c(OS(=O)(=O)c3ccc([N+](=O)[O-])cc3)ccc12` (as salt: benzenesulfonate) [7j, 8-Methyl-2-oxo-4-propyl-2H-chromen-7-yl 4-nitrobenzenesulfonate]: the melting point was in the range of 171 to 174 °C.
A word on the IC50: it is the point on the concentration scale where inhibition reaches its midpoint. Compound `CCS(=O)(=O)Oc1ccc2c3c(c(=O)oc2c1C)CCC3` [5a, 6-Methyl-4-oxo-1,2,3,4-tetrahydrocyclopenta[c]chromen-7-yl ethanesulfonate] came in with a melting point of 150 to 151 °C. Besides, the IC50 in data set [1] (setting [5]) stood at 11 nM. Besides, the IC50 in data set [2] (Table S3, Esuprone derivatives) was determined as 2300 nM.
The corresponding values for `Cc1ccc(S(=O)(=O)Oc2ccc3c4c(c(=O)oc3c2C)CCC4)cc1` [5b, 6-Methyl-4-oxo-1,2,3,4-tetrahydrocyclopenta[c]chromen-7-yl 4-methylbenzenesulfonate] are 152 °C, 12 nM and 4900 nM.
For the compound `Cc1c(OS(=O)(=O)c2ccc([N+](=O)[O-])cc2)ccc2c3c(c(=O)oc12)CCC3` [5c, 6-Methyl-4-oxo-1,2,3,4-tetrahydrocyclopenta[c]chromen-7-yl 4-nitrobenzenesulfonate], the IC50 in data set [1] (setting [5]) was less than 5 nM; in data set [1] (read-out: hMAO-A IC50) it was roughly 5 nM; in data set [2] (Table S3, Esuprone derivatives), 590 nM.
`Cc1c(Oc2nnc(-c3ccccc3)s2)ccc2c3c(c(=O)oc12)CCC3` [5d] came in with a melting point of 140 °C. For the same compound, the IC50 in data set [1] (setting [6]) came out at 96 nM. The compound further showed an IC50 in data set [2] (setting [7]) of 2300 nM.
As to `CCCc1cc(=O)oc2cc(Oc3nnc(-c4ccccc4)s3)ccc12` [7b, 7-((5-Phenyl-1,3,4-thiadiazol-2-yl)oxy)-4-propyl-2H-chromen-2-one], the melting point was found to be 150 °C. In addition, in data set [1] (setting [6]), the IC50 is 24 nM.
In the case of `Cc1c(C)c2cc(Cl)c(Oc3nnc(-c4ccccc4)s3)cc2oc1=O` [7c, 6-Chloro-3,4-dimethyl-7-((5-phenyl-1,3,4-thiadiazol-2-yl)oxy)-2H-chromen-2-one], the melting point lay in the range of 171 to 173 °C. Besides, in data set [1] (setting [6]), the IC50 is 810 nM. The compound further showed an IC50 in data set [2] (setting [7]) of 440 nM.
As to `CCS(=O)(=O)Oc1ccc2c(C3CC3)cc(=O)oc2c1` [7d, 4-Cyclopropyl-2-oxo-2H-chromen-7-yl ethanesulfonate], the melting point was 92 °C. In addition, the IC50 in data set [1] (setting [5]) was 1400 nM. For the same compound, the IC50 in data set [2] (Table S3, Esuprone derivatives) was greater than 100000 nM.
Take `Cc1ccc(S(=O)(=O)Oc2ccc3c(C4CC4)cc(=O)oc3c2)cc1` [7e, 4-Cyclopropyl-2-oxo-2H-chromen-7-yl 4-methylbenzenesulfonate]: the melting point lay within 132 to 134 °C. Moreover, in data set [1] (setting [5]), the IC50 is 1100 nM. In data set [2] (Table S3, Esuprone derivatives), this compound yielded an IC50 of 9500 nM.
For the compound `O=c1cc(C2CC2)c2ccc(OS(=O)(=O)c3ccc([N+](=O)[O-])cc3)cc2o1` [7f, 4-Cyclopropyl-2-oxo-2H-chromen-7-yl 4-nitrobenzenesulfonate], the IC50 in data set [1] (setting [5]) was 95 nM; in data set [2] (Table S3, Esuprone derivatives), 9000 nM.
`O=c1cc(C2CC2)c2ccc(Oc3nnc(-c4ccccc4)s3)cc2o1` [7g, 4-Cyclopropyl-7-((5-phenyl-1,3,4-thiadiazol-2-yl)oxy)-2H-chromen-2-one] displayed a melting point of 158 to 160 °C. Also, the IC50 in data set [1] (setting [6]) came out at 2000 nM. The compound also yielded an IC50 in data set [2] (setting [7]) of 6200 nM.
For `CCCc1cc(=O)oc2c(C)c(OS(=O)(=O)CC)ccc12` [7h, 8-Methyl-2-oxo-4-propyl-2H-chromen-7-yl ethanesulfonate], the melting point is 78 to 80 °C. Also, the 50% inhibitory concentration (IC50) in data set [1] (setting [5]) turned out to be 910 nM. The compound further came in with an IC50 in data set [2] (Table S3, Esuprone derivatives) of 9900 nM.
For `CCCc1cc(=O)oc2c(C)c(OS(=O)(=O)c3ccc(C)cc3)ccc12` [7i, 8-Methyl-2-oxo-4-propyl-2H-chromen-7-yl 4-methylbenzenesulfonate], the IC50 turned out to be 170 nM in data set [1] (setting [5]) and 4100 nM in data set [2] (Table S3, Esuprone derivatives).
In the case of `CCCc1cc(=O)oc2c(C)c(OS(=O)(=O)c3ccc([N+](=O)[O-])cc3)ccc12` [7j, 8-Methyl-2-oxo-4-propyl-2H-chromen-7-yl 4-nitrobenzenesulfonate], the IC50 in data set [1] (setting [5]) came to 29 nM; in data set [2] (Table S3, Esuprone derivatives), 1700 nM.
Regarding `CCCc1cc(=O)oc2c(C)c(Oc3nnc(-c4ccccc4)s3)ccc12` [7k, 8-Methyl-7-((5-phenyl-1,3,4-thiadiazol-2-yl)oxy)-4-propyl-2H-chromen-2-one], the melting point lay in the range of 110 to 112 °C. Moreover, in data set [1] (setting [6]), the IC50 is 21 nM. In data set [2] (setting [7]), this compound displayed an IC50 of 120 nM.
For the compound `CNCc1cc(=O)oc2cc(OCc3cccc(Cl)c3)ccc12` [C18, reference compound], in data set [3] (setting [8]), the “MAO-A pIC50” value is 4.8. Further, in data set [4] (setting [8]), the “MAO-B pIC50” value was 7.
For the compound `CCS(=O)(=O)Oc1ccc2c(C)c(C)c(=O)oc2c1` [Esuprone, reference compound], in data set [3] (comparison value under Table S3, MAO-A by context, source not stated, read-out: IC50 value of Esuprone), the IC50 is 10.7 nM.
A word on the inhibition: it is the percentage by which the read-out fell short of the control. A high value points to strong suppression. `Cc1c(OC(=O)C2CC2)ccc2c3c(c(=O)oc12)CCC3` [FR1]: the IC50 in data set [1] (setting [6]) is 1.5 nM; in data set [2] (setting [7]), greater than 1000 nM. In data set [2], this compound yielded an inhibition at 10 µM of 75%.
Take `Cc1c(OCC(=O)N(C)C)ccc2c3c(c(=O)oc12)CCC3` [FR2]: the IC50 in data set [1] (setting [6]) was 2820 nM; in data set [2] (setting [7]) it was greater than 10000 nM. In data set [2], the inhibition at 10 µM stood at 12%.
As to `C=CCOC(=O)COc1ccc2c3c(c(=O)oc2c1C)CCCC3` [FR3], the IC50 in data set [1] (setting [6]) was 740 nM; in data set [2] (setting [7]), greater than 5000 nM. The compound further came in with an inhibition at 10 µM in data set [2] of 66%.
The compound `O=C(COc1ccc2c3c(c(=O)oc2c1)CCC3)c1ccc(Cl)cc1` [FR4] had an inhibition at 10 µM in data set [1] of 23%. Besides, the IC50 was greater than 10000 nM in data set [1] (setting [6]) and 18 nM in data set [2] (setting [7]).
With `Cc1cc(=O)oc2cc(OCCOc3ccccc3)ccc12` [FR5], in data set [1], 10 µM produced 28% inhibition. Moreover, the IC50 in data set [1] (setting [6]) is greater than 10000 nM; in data set [2] (setting [7]) it was 15 nM.
For `Cc1cc(=O)oc2c(C)c(OCC(=O)N(C)C)ccc12` [M29], the “MAO-A Avg. Inh% at 10 uM” value in data set [3] (setting [9]) is on record as 75%. The “MAO-A pIC50” value in data set [3] (setting [10]) was 5.6. Moreover, the IC50 in data set [3] (previously identified BRS-3D hits, read-out: MAO-A IC50) was 2290 nM. Besides, the “MAO-B Avg. Inh% at 10 uM” value in data set [4] (setting [9]) is recorded as 12%. Moreover, the “MAO-B pIC50” value in data set [4] (setting [10]) is 4.
Take `CCc1cc(=O)oc2cc(OCC(=O)N(C)C)ccc12` [M30]: the “MAO-A Avg. Inh% at 10 uM” value in data set [3] (setting [9]) was 56%. In data set [4] (setting [9]), the “MAO-B Avg. Inh% at 10 uM” value is listed as 22%.
Turning to `Cc1cc(=O)oc2c(C)c(Oc3nnc(-c4ccccc4)s3)ccc12` [SP1], the IC50 in data set [1] (setting [6]) is 19 nM; in data set [2] (setting [7]), greater than 5000 nM. In data set [2], the inhibition at 10 µM stood at 64%.
